The supplement of paper PMC10307832

Key:
Assay in all cases: relative viability (nuclei count vs DMSO), 5 days (fraction); higher = more cells survive
[1] = compound: CS(=O)(=O)c1ccc(C(=O)Nc2ccc(Cl)c(-c3ccccn3)c2)c(Cl)c1 [Vismodegib] + COc1cc2c(Oc3ccc(NC(=O)C4(C(=O)Nc5ccc(F)cc5)CC4)cc3F)ccnc2cc1OCCCN1CCOCC1 [Foretinib] (partner 0.25 µM)
In short: (§1)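 Relative viability divides the nuclei count in treated wells by that in vehicle wells. Lung cancer cell lines were seeded in 1536-well plates, dosed by pin tool the next day, and fixed and stained after 5 days in one step with final 0.05% Triton X-100, 1% formaldehyde and 1 ug/ml Hoechst. Dosing was a single drug or a fixed anchor-drug dose plus five library-drug doses (not always all listed) in √10 steps, and values are medians of duplicate plates imaged at 4×.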

[2] = compound: N#CC[C@H](C1CCCC1)n1cc(-c2ncnc3[nH]ccc23)cn1 [Ruxolitinib] + Cc1nc(Nc2ncc(C(=O)Nc3c(C)cccc3Cl)s2)cc(N2CCN(CCO)CC2)n1 [Dasatinib] (partner 0.075 µM)
In short: as §1

[3] = compound: CS(=O)(=O)c1ccc(C(=O)Nc2ccc(Cl)c(-c3ccccn3)c2)c(Cl)c1 [Vismodegib] + Nc1nc2[nH]cc(CCc3ccc(C(=O)N[C@@H](CCC(=O)O)C(=O)O)cc3)c2c(=O)[nH]1 [Pemetrexed] (partner 0.2 µM)
In short: as §1

[4] = compound: N#CC[C@H](C1CCCC1)n1cc(-c2ncnc3[nH]ccc23)cn1 [Ruxolitinib] + Nc1nc2[nH]cc(CCc3ccc(C(=O)N[C@@H](CCC(=O)O)C(=O)O)cc3)c2c(=O)[nH]1 [Pemetrexed] (partner 0.2 µM)
In short: as §1

| Cell Line | relative viability ([1]; first compound 0.08 µM) | relative viability ([1]; first compound 0.253 µM) | relative viability ([1]; first compound 0.8 µM) | relative viability ([1]; first compound 2.53 µM) | relative viability ([1]; first compound 8 µM) | relative viability ([2]; first compound 0.08 µM) | relative viability ([2]; first compound 0.253 µM) | relative viability ([2]; first compound 0.8 µM) | relative viability ([2]; first compound 2.53 µM) | relative viability ([2]; first compound 8 µM) | relative viability ([3]; first compound 0.08 µM) | relative viability ([3]; first compound 0.253 µM) | relative viability ([3]; first compound 0.8 µM) | relative viability ([3]; first compound 2.53 µM) | relative viability ([3]; first compound 8 µM) | relative viability ([4]; first compound 0.08 µM) | relative viability ([4]; first compound 0.253 µM) | relative viability ([4]; first compound 0.8 µM) | relative viability ([4]; first compound 2.53 µM) | relative viability ([4]; first compound 8 µM) |
| --- | --- | --- | --- | --- | --- | --- | --- | --- | --- | --- | --- | --- | --- | --- | --- | --- | --- | --- | --- | --- |
| NCI-H1666 | 1.01 | 0.935 | 1.05 | 0.925 | 0.936 | 0.869 | 0.757 | 0.838 | 0.76 | 0.528 | 0.852 | 0.912 | 0.836 | 0.843 | 0.925 | 1.01 | 0.814 | 0.988 | 0.786 | 0.887 |
| NCI-H1734 | 0.875 | 0.869 | 0.876 | 0.772 | 0.946 | 0.522 | 0.433 | 0.503 | 0.38 | 0.341 | 0.433 | 0.399 | 0.433 | 0.429 | 0.414 | 0.399 | 0.366 | 0.437 | 0.369 | 0.456 |
| NCI-H1755 | 0.894 | 0.91 | 0.947 | 0.96 | 0.913 | 0.473 | 0.394 | 0.472 | 0.341 | 0.213 | 0.441 | 0.417 | 0.365 | 0.426 | 0.432 | 0.459 | 0.448 | 0.414 | 0.407 | 0.42 |
| NCI-H1793 |  | 0.524 | 0.616 | 0.848 | 0.609 | 0.286 | 0.394 | 0.389 | 0.303 | 0.243 |  | 0.877 | 0.708 | 0.83 | 0.726 | 0.835 | 0.938 | 1.15 | 1.06 | 0.664 |
| NCI-H1915 | 1.02 | 1.06 | 1.05 | 1.05 | 1.08 | 0.33 | 0.305 | 0.319 | 0.217 | 0.204 | 0.464 | 0.434 | 0.515 | 0.444 | 0.49 | 0.512 | 0.501 | 0.515 | 0.518 | 0.439 |
| NCI-H1944 | 0.851 | 0.794 | 0.897 | 0.878 | 0.942 | 0.204 | 0.17 | 0.209 | 0.168 | 0.167 | 0.625 | 0.696 | 0.611 |  | 0.629 | 0.671 | 0.68 | 0.651 | 0.65 | 0.694 |
| NCI-H1975 | 0.993 | 0.996 | 0.933 | 0.832 | 0.964 | 0.387 | 0.374 | 0.357 | 0.363 | 0.227 | 0.309 | 0.264 | 0.293 | 0.263 | 0.287 | 0.283 | 0.334 | 0.329 | 0.318 | 0.266 |
| NCI-H1993 | 0.863 | 0.654 | 0.782 | 0.773 | 0.675 | 0.532 | 0.523 | 0.579 | 0.488 | 0.583 | 0.559 | 0.583 | 0.564 | 0.68 | 0.63 | 0.662 | 0.525 | 0.618 | 0.633 | 0.621 |
| NCI-H2009 | 1.23 | 1.23 | 1.29 | 1.19 | 1.23 | 0.354 | 0.263 | 0.273 | 0.129 | 0.176 | 1.02 | 1.03 | 1.03 | 0.941 | 0.965 | 1.03 | 1.03 | 1.03 | 0.936 | 0.745 |
| NCI-H2023 | 0.974 | 0.804 | 0.881 | 0.834 | 0.999 | 0.616 | 0.336 | 0.575 | 0.332 | 0.354 | 0.256 | 0.216 | 0.219 | 0.235 | 0.248 | 0.264 | 0.271 | 0.23 | 0.233 | 0.23 |
| NCI-H2085 | 0.86 | 0.96 | 0.989 | 0.755 | 0.796 | 0.278 | 0.268 | 0.282 | 0.293 | 0.299 | 0.78 | 0.887 | 0.944 | 0.98 | 0.865 | 0.918 | 0.825 | 1.09 | 0.783 | 0.653 |
| NCI-H2087 | 1.09 | 1.1 | 0.985 | 1.13 | 0.938 | 0.836 | 0.661 | 0.675 | 0.431 | 0.52 | 0.692 | 0.657 | 0.651 | 0.643 | 0.657 | 0.685 |  | 0.726 | 0.703 | 0.652 |
| NCI-H2126 | 1.19 | 1.13 |  | 1.09 | 1.15 | 0.599 | 0.526 | 0.715 | 0.616 | 0.453 | 0.717 | 0.664 | 0.661 | 0.623 | 0.681 | 0.757 | 0.736 | 0.789 | 0.721 | 0.663 |
